# Article PMC6054100, “Exploring the chemical space of the lysine-binding pocket of the first kringle domain of hepatocyte growth factor/scatter factor (HGF/SF) yields a new class of inhibitors of HGF/SF-MET binding” (Chemical Science, 2015)
# Columns and labels:
# [1] = target: T1, lysine-binding pocket of the kringle domain of NK1 (Homo sapiens, UniProt P14210); experiment: Soaking into NK1 apo crystals, X-ray crystallography; settings: soaked into NK1 apo crystals
# T1 construct: made in house; host or cells: Pichia pastoris
# Method: Next, three classes of piperazine-like sulphonated compounds containing piperazine ((H)EPPS and PIPES), morpholine (MES and MOPS), or cyclohexane (CHES and CAPS) rings were studied for their binding to NK1 (Table 1), alongside another five sulphonated compounds selected from a chemical fragment library (Table 2).
# NK1 buffered in 150 mM NaCl, 50 mM Tris, pH 7.5 (apo-NK1 and all soaking experiments) was concentrated to ∼20 mg mL^–1 using a Vivaspin device with a 10 kDa cut-off membrane (Sartorius Biolab). Crystallisation was carried out in Linbro plates by the vapour diffusion hanging drop technique using a protein : precipitant ratio of 1 : 1 at 20 °C. Previously NK1 has been crystallised in 18% PEG 4000, 200 mM sodium acetate and 150 mM Tris pH 8.5 as precipitant.[19] Here final crystallisation conditions (19% PEG 4000, 200 mM sodium acetate and 150 mM Tris pH 7.5) were optimised around those to achieve high-resolution apo structure. Details of compound soaking, X-ray data collection and structure determination are given in the ESI ^† section of the manuscript. […]
# For this, 1 M stock solutions were prepared in DMSO (fragments) or water (piperazine- like compounds) and the pH adjusted to a value within their buffering range with either HCl or NaOH. The seven piperazine- like compounds and their respective pH are: HEPES (pH 7.6), (H)EPPS (pH 7.4), PIPES (pH 7.0), MES (pH 5.8), MOPS (pH 7.2), CHES (pH 8.6) and CAPS (pH 9.7). Secondary stocks of the compounds at 50 mM were prepared in the […]
# respective mother liquor and soaked for up to 48 hours.
# MB605 was solubilised in 50% DMSO at 20 mM concentration (1% f inal DMSO concentration in the drop) in order to minimize adverse effects of DMSO on the protein crystal. 25% ethylene glycol was used as the cryoprotective agent.
# X-ray data collection and processing
# X-ray datasets were collected either at the European Synchrotron Radiation Facility (ESRF, Grenoble, France), the Diamond Light Source (DLS, Oxford, UK) or in-house using the X8 PROTEUM (Bruker AXS) at the Department of Biochemistry, University of Cambridge.
# Datasets of at least 180° were collected. Raw data collected at synchrotrons were integrated, merged, scaled and reduced using DENZO and […].2 Raw data […]
# collected in- house were integrated, merged, scaled and reduced using the PROTEUM 2 software package .3 The CCP4 suite of crystallographic programs (Collaborative
# [2] = tested on: MET downstream signalling (Erk 1/2, Akt) in Vero cells; experiment: MET, Erk1/2 and Akt phosphorylation assay in NK1-stimulated Vero cells (Western blot); format: cell-based; settings: Vero cells stimulated with NK1; compound 100 mM (lanes 4)
# Method: We evaluated the effect of piperazine-like compounds and MB605 on Vero cells by assessing MET, Erk 1/2 and Akt phosphorylation in response to stimulation using […] NK1. MB605 was dissolved in DMSO, which limited the range of concentrations tested to ≤1 mM in order to avoid solvent effects on cell function/viability. The water-soluble piperazine-like compounds, in contrast, could be tested at concentrations up to 100 mM.
# Fig. 6 Biological activity of the piperazine-like compounds and MB605. (a–e) Vero cells expressing the receptor endogenously on their cell surface were stimulated with HGF/SF or NK1 and phosphorylation of MET and downstream targets Akt and Erk1/2 was analysed. Piperazine-like compounds HEPES (a), (H)EPPS (b), MES (c), MOPS (d) and CAPS (e) were tested at 100 mM (lanes 4), 10 mM (lanes 5), 1 mM (lanes 6) and 100 μM (lanes 7) concentration in the presence of 1 nM NK1. To control for activating or inhibiting effects of the compounds independently of MET, piperazine-like compounds were tested on cells at 100 mM without stimulation by NK1 (lanes 3). Biological activity of MB605 (f) was investigated at 1 mM (lane 5), 100 μM (lane 6) and 10 μM (lane 7) in the presence of a constant concentration of DMSO (0.1%). A solvent control (0.1% DMSO, lane 3) was included in order to account for the effect of DMSO on the cells. A positive control (1 nM NK1 in the presence of 0.1% DMSO) is shown in lane 4. In all experiments, un-stimulated cells served as negative control (lanes 1) while cells stimulated with 1 nM NK1 served as positive control (lanes 2).
# The ability of MB605 and the piperazine-like compounds to inhibit MET, Erk and Akt phosphorylation in the presence of NK1 was tested using mammalian Vero cells as described by Ferraris et al.[47] and further details are given in the ESI ^† section of the manuscript. […]
# For MET, Erk1/2 and Akt phosphorylation assays, Vero cells were seeded at 2.1 × 10^5 cells we ll -1 (2 ml we ll -1) in 6-well plates and grown to 90% conf luence in 10% FCS/DMEM media and then switched to serum-free medium (to avoid any growth f actors present in the serum).
# 24 hours post starvation the cells were stimulated for 5 min at 37°C with each individual piperazine -like compounds as well as with NK1 (1 nM) pre-incubated with different concentrations of the piperazine- like compounds (100 mM, 10 mM, 1 mM and 100 μM) or MB605 (1 mM, 100 μM and 10 μM). Stimulations with either 0. 1% DMS O or 1 nM of NK1 […]
# solution were used as a negative and a positive control, respectively. The cells were then washed in PBS buffer, lysed on ice f or 30 min and frozen at -80 °C until further analysis. For
# [3] = target: T2, NK1 (Homo sapiens, UniProt P14210); experiment: SPR steady-state binding to immobilized NK1 (Biacore T100); parameters: made in house; host or cells: Pichia pastoris
# Method: Binding constants of piperazine-like compounds and fragments were determined using a Biacore T100 instrument. NK1 was immobilized on a CM5 chip by amine coupling to a density of 6000 RU. Compounds were stored as 100 mM stock solutions in water and serial dilutions were prepared in the running buffer (PBS pH 7.4, 0.05% Tween 20). The compound solutions were injected onto the surface of the chip at a flow rate of 30 μL min^–1, contact time was 1 min and dissociation time 1 min. Sensorgrams were analysed using the Biacore T100 evaluation software and the binding constants determined.
# [4] = target: T2, NK1; experiment: 1H-15N TROSY-HSQC NMR chemical shift titration of 15N-labelled NK1; format: binding; parameters: made in house; host or cells: Pichia pastoris; settings: steady-state binding constants; piperazine-like compounds; 0.18 mM NK1, pH 7.2, 310 K; read-out: KD in NMR
# Method: Ligand screening was performed by monitoring the chemical shift variations in ^1H-^15N TROSY-HSQC NMR spectra of the uniformly [^15N]-labelled NK1 protein (Fragai et al. 2015, in prep.) upon the addition of increasing concentrations of the investigated compounds.[43]–[45] The experiments were performed using 0.18 mM protein samples in 25 mM Tris, 100 mM NaCl and 0.01% sodium azide, at pH 7.2 with 10% D2O. The spectra were recorded at 310 K on a Bruker AVANCE 900 MHz spectrometer equipped with a TXI cryo-probe. Sample solutions were prepared from 1 M or 100 mM DMSO stock solutions of the ligands. The dissociation constant values (KD) were calculated by plotting the weighted average ^1H and ^15N chemical shifts of the residues experiencing significant variations as a function of ligand concentration added during the titration and considering the one site binding model.[46]
# [5] = target: T2, NK1; experiment: SPR fragment library screening against NK1; format: binding; parameters: made in house; host or cells: Pichia pastoris; settings: for Ranking order: based on fragment screening, rank among the 71 NK1 hits (ESI Tables S3-S7); for SPR response: normalised relative value against NK1
# Method: Supplementary Materials and Methods
# Fragment library screening and data analysis
# Met567 (soluble truncated f ragment of the MET ectodomain, residues 25- 567), NK1 and t he SPH domain were immobilized on CM5 chips by amine coupling. NK1 was diluted into 10 m M phosphate pH 7.0 and the SPH domain into 10 mM acetate pH 5.5 to a final concentration of 2.5 μM and 1 μM, respectively, for coupling. The immobilization wizard within the Biacore T100 software was set to “aim for immobiliz ed level” of 8000 RU to achieve complete saturation of the chip surface.
# W ith minor deviations, the procedure and conditions outlined below were used f or a ll screening s of an in-house fragment library of 1338 members against individual target proteins. The running buffer was PBS pH 7.4, 0.05% Tween 20, 0.25% DMSO (1% DMSO for Met567). Fragments were stored as 100 mM stock solutions in DMSO. Prior to screening, fragment samples were diluted to 500 μM (1 mM f or Met567) in running buffer.
# Screening was performed in 96- we ll plates at a flow rate of 30 μl min-1 with 1 min sample injection f ollowed by dissociation f or 1 min and surf ace regeneration using 1 M NaCl f or 30 […]
# post-regeneration baseline exceeded the pre- sample baseline by more than 10 RU, a second regeneration cycle with 50% ethylene glycol was used. In order to be able to correct for small variations in DMSO concentration between samples, eight solvent samples ranging from 0.012 to 1.5% DMSO were injected every 40th cycle. To monitor the binding capacity of the NK1, SPH and Met567 surfaces throughout the screening, injections of 500 μM HEPES (NK1), 0.25 μM Met567 (SPH) and 0.2 μM NK1 and 1% DMSO (Met567) were carried out every 40th cycle. The flow cell temperature was 25°C. NK1 and the SPH domain were immobilized on the same chip (channels 2 and 3 respectively) and were theref ore screened in parallel. Met567 was screened separately and results are published in an accompanying paper (W in t er et al. 2015, in revision).
# For data analysis, fir st, all responses were reference and solvent corrected. 1 Next, equilibrium binding for every fragment was determined and hits established by applying several filters: sensorgram shape, upper and lower threshold. Typical sensorgrams from fragment screening show “square curves” in SPR due to the fast on and off rates and fragments not showing this response were discarded from further analysis. Binding levels are represented as response units (RU) but the SPR signal is a convolution of multiple parameters including target coupling density, target -binding activity, target molecular weight and molecular weight of each injected fragment. To be able to identif y hits accurately and to be able to compare responses between different plates and targets, data were normalised against these factors. First the theoretical maximum response for each fragment was calculated using equation 1:
# RRmmm = CCCCCCCC ddCdCdd× MMffmCmdCd (Equation 1)
# This RUmax value diff ers for each protein target because it depends on the molecular weight of the protein and the amount of protein immobilized on the chip (coupling density). The RUmax was then used to calculate the normalised relative SPR response:
# NNNNNNNNNN NNNNr NrN SSR NNNrNrNN = RRcppppcppc× 100% (Equation 2) […]
# fragment should cause upon binding. 100% response would be 1:1 binding wit h levels above 100% implying over-stoichiometric binding. […]
# Fragment library screening to identify small molecule binders
# [6] = steady-state binding constants, piperazine-like compounds, immobilized NK1, PBS pH 7.4, read-out: KD in SPR
# [7] = steady-state binding constant from SPR, fragment hits (Table 3, text), read-out: KD
# [8] = fragments 500 μM (ESI Tables S3-S7)
# [9] = initial fragment screening, fragments 500 μM (Table 3)
# [10] = steady-state binding constant from SPR (ESI Tables S3-S7), read-out: KD
# T2 sequence (P14210 32-210 isoform P14210-6 limits assumed): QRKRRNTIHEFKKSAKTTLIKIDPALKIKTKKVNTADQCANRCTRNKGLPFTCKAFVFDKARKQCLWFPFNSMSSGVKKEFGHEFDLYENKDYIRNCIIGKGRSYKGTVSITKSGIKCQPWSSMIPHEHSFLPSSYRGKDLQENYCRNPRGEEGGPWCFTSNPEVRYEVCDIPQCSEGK
# T1 sequence (P14210 32-210 isoform P14210-6 limits assumed): as above
SMILES,Ranking order [5],"SPR response [5, 8]","Kd [3, 10]",other results
"O=S(=O)(O)CCCO [2FA, 3-Hydroxypropane-1-sulphonic acid]",,,,binding in the lysine-binding pocket (crystal structure) [1]: bound in the lysine-binding pocket
O=S(=O)(O)CCCN1CCN(CCO)CC1 [(H)EPPS],,,,"Inhibition of phosphorylation of Erk 1/2 and Akt (S473) [2]: Inhibition of phosphorylation; Kd [3, 6]: 7000 ± 1000 µM; Kd [4]: 4400 ± 1800 µM"
O=S(=O)(O)CCNC1CCCCC1 [CHES],,,,"binding in the lysine-binding pocket (crystal structure) [1]: bind the lysine-binding pocket of NK1; Kd [3, 6]: 30200 ± 3100 µM; Kd [4]: 15700 ± 4500 µM"
COc1ccc(C#N)cn1 [MB1261],12,95%,,"Kd [3, 7]: 350 ± 40 µM; SPR response [5, 9]: 95%"
CC(=O)Nc1ccccc1F [MB1267],16,90%,1600 µM,
Cc1cccc(CN)c1C [MB1274],7,105%,1600 µM,
Cc1cccc(C)c1C#N [MB1283],13,94%,,"KD ([3]; steady-state binding constant from SPR, fragment hits (Table 3, text)): lowest affinity"
Cc1cccc(C(N)=O)c1C [MB1284],15,90%,,"Kd [3, 7]: 860 ± 70 µM; SPR response [5, 9]: 90%"
CNCc1cccnc1 [MB1290],9,102%,1640 µM,
Nc1ccc(OC(F)F)cc1 [MB1293],22,72%,5000 µM,
Cc1cc(C)on1 [MB1299],2,131%,2200 µM,
Cc1ccc(C(=O)O)cc1Cl [MB1306],21,77%,2500 µM,
CCCc1ccc(C(C)=O)cc1 [MB1315],47,52%,,"Kd [3, 7]: 940 ± 90 µM; SPR response [5, 9]: 52%"
Cc1cc(Cl)ccc1C(=O)O [MB1318],33,61%,,"Kd [3, 7]: 360 ± 40 µM; SPR response [5, 9]: 61%"
"O=S(=O)(O)CCN1CCN(CCS(=O)(=O)O)CC1 [PIPES, reference compound]",,,,"Kd [3, 6]: 26600 ± 600 µM; Kd [4]: 45900 ± 4700 µM"
